Reference: patent publication US6511966B2, “Mitochondria protecting agents for treating mitochondria associated diseases” (MitoKor, priority 1998, dated 2003)

What follows are compounds tested on SH-SY5Y human neuroblastoma cells (assay: DCFC assay for inhibition of ROS production, cell-based aspect). Details: Homo sapiens, 0.5 h; SH-SY5Y cells pre-loaded with DCFC-DA; ferric chloride/ascorbate induced free radical formation; fluorescence change over 30 minutes; read-out: IC50 Cell-Based (Inhibition of ROS, DCFC assay).
Text: According to this assay, the ability of a mitochondria protecting agent of the invention to inhibit production of ROS intracellularly may be compared to its antioxidant activity in a cell-free environment. […] Non-fluorescent DCFC is converted upon oxidation to a fluorophore that can be quantified fluorimetrically. Cell membranes are also permeable to DCFC, but the charged acetate groups of DCFC are removed by intracellular esterase activity, rendering the indicator less able to diffuse back out of the cell. In the cell-based aspect of the DCFC assay for inhibition of production of ROS, cultured cells may be pre-loaded with a suitable amount of DCFC and then contacted with a mitochondria protecting agent. After an appropriate interval, free radical production in the cultured cells may be induced by contacting them with iron (III)/ascorbate and the relative mean DCFC fluorescence can be monitored as a function of time. In the cell-based aspect of the DCFC assay, monolayers of cultured adherent SH-SY5Y human neuroblastoma cells (Biedler et al., Cancer Res. 33:2643, 1973) at or near confluence were rinsed and harvested using trypsin according to standard methods. […] The excess DCFC-DA was removed by needle aspiration and each well was gently rinsed twice with HBSS. Each well then received 80 μl of HBSS and 10 μl of mitochondria protecting agent, or vehicle control, diluted into HBSS from stock solutions of dimethylformamide or dimethylsulfoxide. The final concentration of the organic solvent was maintained at or below 0.1% (v/v) in HBSS while in contact with cells. Cells were equilibrated for 15 minutes at room temperature with the mitochondria protecting agent (or vehicle control) and then 10 μl of fresh 500 μM ferric chloride/300 μM ascorbate solution was added to initiate free radical formation. Fluorescence of each microculture in the 96-well plate was quantified immediately using a Cytofluor fluorimetric plate reader (model #2350, Millipore Corp., Bedford, Mass.; excitation wavelength=485 nm, emission wavelength=[…]) and t0 fluorescence was recorded. The 96-well plates were incubated 30 minutes at 37° C./5% CO2 and fluorescence at 530 nm was again measured (t30). […] The cells were then harvested by trypsinization and counted using a hemacytometer in order to normalize the data as Δ(t30,−t0)RMF per cell. The efficacy of a candidate mitochondria protecting agent was determined by comparing its ability to inhibit ROS production relative to the vehicle control.

Compared with CCCCCCCCc1ccc(O)c(N)c1 [(I-2), 2-amino4octyl phenol], CCCc1ccc(O)c(O)c1 [(I-6), 2-hydroxy4-propylphenol] is 8-fold higher in IC50: 25 nM for the first, 200 nM for the second.

First: CC(C)(C)CC(C)(C)c1ccc(O)c(N)c1 [(I-3)]
Second: CC(C)(c1ccc(O)c(N)c1)c1ccc(O)c(N)c1 [(II-2)]
The IC50 of the first is 1.9-fold higher: 65 nM for the first, 35 nM for the second.

OCCCc1ccc(O)c(O)c1 [(I-5)] and CCCc1cc(O)ccc1O [(I-10)] are within 1.5-fold of each other in IC50: 100 nM for the first, 120 nM for the second.

First: CCCc1ccc(OC(C)=O)c(OC(C)=O)c1 [(I-8)]
Second: CC1=CC(C)(C)Nc2ccc(O)cc21 [(III-3), 2,2,4-trimethyl-1,2-dihydro-quinolin-6-ol]
The IC50 of the first is 5.7-fold higher: 400 nM for the first, 70 nM for the second.

Going from CC(C)(c1ccc(O)cc1)c1ccc(O)cc1 [(II-5), 4,4′-Isopropylidenediphenol] to CN(C)c1cc(C(C)(C)c2ccc(O)c(N(C)C)c2)ccc1O [(II-6)], the IC50 falls from 1000 nM to 10 nM (100-fold). The second is the more potent here.

Cc1c(C)c2c(c(C)c1O)CCC(C)(CNNC(=N)N)O2 (stereo not drawn) [(IV-9)] showed an IC50 of 1000 nM.

Same assay, conditions: Homo sapiens, SH-SY5Y, 0.5 h, read-out: IC50 Cell-Based (Inhibition of ROS, DCFC assay)

Work on CC(C)(c1ccc(O)cc1)c1ccc(O)c(NC(=N)N)c1 [(II-10)] yielded an IC50 of 1000 nM.

Same assay, conditions: SH-SY5Y cells pre-loaded with DCFC-DA; ferric chloride/ascorbate induced free radical formation; fluorescence change over 30 minutes; read-out: IC50 Cell-Based (Inhibition of ROS, DCFC assay)

With CCOc1ccc2c(c1)C(C)=CC(C)(C)N2 [(III-4), 6-ethoxy-1,2-dihydro-2,2,4-trimethylguinoline] the IC50 was 20 nM.

The compounds below were run on SH-SY5Y neuroblastoma cells (assay: Ionomycin induced apoptosis (membrane blebbing by light microscopy)). Details: 10 μM ionomycin for 10 minutes, then 6h incubation at 37° C.; untreated cells <5%.
Assay type: cell-based, human
Protocol: SH-SY5Y neuroblastoma cells (1×10^5 cells) are rinsed with one volume 1×PBS, and then treated with 10 μM ionomycin (Calbiochem, San Diego, Calif.) in DMEM supplemented with 10% fetal calf serum (FCS) (Gibco, Life Technologies, Grand Island, N.Y.) for 10 minutes, followed by two washes with DMEM (10% FCS). After 6h incubation at 37° C. in DMEM (10% FCS), cells are visualized by light microscopy (20X magnification). […] When cells are simultaneously treated with ionomycin and 2 mM creatine, the proportion of cells undergoing apoptosis as evidenced by membrane blebbing is reduced to approximately 10%. Candidate mitochondria protecting agents are assayed to determine whether they provides the same magnitude of protection from induction of apoptosis as does creatine in this ionomycin induced apoptosis assay.

C[C@H](CCC(=O)O)C[C@H](C)C[C@H](C)C(=O)/C=C(\O)[C@H](C)C[C@H](C)C/C=C/[C@@H](C)[C@@H](O)[C@@H](C)[C@@H](O)C[C@@H]1CC[C@@](C)([C@H]2CC[C@@](C)([C@@H](C)O)O2)O1 [ionomycin] was tested, and the “ionomycin treated cells exhibiting membrane blebbing (final stage of apoptosis)” value was “Approximately 80%”.

Same assay, conditions: cells simultaneously treated with 10 μM ionomycin and 2 mM creatine; 6h incubation at 37° C.

With CN(CC(=O)O)C(=N)N [creatine] the “proportion of cells undergoing apoptosis as evidenced by membrane blebbing” value was “approximately 10%”.
